In ChEMBL document CHEMBL2203009, “Synthesis of isoindole and benzoisoindole derivatives of teicoplanin pseudoaglycon with remarkable antibacterial and antiviral activities” (Bioorg Med Chem Lett, 2012):
pEC50: −log10 of the molar value. ≈ marks a conversion by molar mass, not a printed value.

Assays:
[1] = tested on: Influenza A virus; experiment: Antiviral activity against Influenza A virus (A/Puerto Rico/8/1934(H1N1)) H1N1 infected in MDCK cells assessed as inhibition of virus-induced cytopathic effect; type: functional, organism-based
[2] = Toxicity in MDCK cells assessed as induction of cell morphology changes; type: cell-based, Canis lupus familiaris; conditions: dog
[3] = tested on: Influenza B virus; experiment: Antiviral activity against Influenza B virus (B/Hong Kong/05/1972) […] infected in MDCK cells assessed as inhibition of virus-induced cytopathic effect; type: functional, cell-based; conditions: B/Hong Kong/05/1972, MDCK
[4] = tested on: H3N2 subtype; experiment: Antiviral activity against Influenza A virus (A/Hong Kong/7/1987(H3N2)) […] infected in MDCK cells assessed as inhibition of virus-induced cytopathic effect; type: functional, organism-based
[5] = Toxicity in HEL cells assessed as induction of cell morphology changes; type: cell-based; conditions: human
[6] = tested on: Staphylococcus epidermidis; experiment: Antimicrobial activity against Staphylococcus epidermidis ATCC 35984 biofilms; type: functional
[7] = tested on: Human alphaherpesvirus 1; experiment: Antiviral activity against HSV1 KOS infected in HEL cells assessed as inhibition of virus-induced cytopathic effect; type: functional, organism-based; conditions: Human alphaherpesvirus 1, KOS
[8] = tested on: Enterococcus faecalis; experiment: Antimicrobial activity against Enterococcus faecalis 15376 over-expressing vanA; type: functional
[9] = tested on: Staphylococcus aureus; experiment: Antimicrobial activity against methicillin-resistant Staphylococcus aureus ATCC 33591; type: functional
[10] = tested on: Human alphaherpesvirus 2; experiment: Antiviral activity against HSV2 G infected in HEL cells assessed as inhibition of virus-induced cytopathic effect; type: functional, organism-based; conditions: Human alphaherpesvirus 2, strain G
[11] = tested on: Enterococcus faecalis; experiment: Antimicrobial activity against Enterococcus faecalis ATCC 51299 over-expressing vanB; type: functional
[12] = tested on: Staphylococcus aureus; experiment: Antimicrobial activity against methicillin-sensitive Staphylococcus aureus ATCC 29213; type: functional
[13] = tested on: Enterococcus faecalis; experiment: Antimicrobial activity against Enterococcus faecalis ATCC 29212; type: functional
[14] = tested on: Vaccinia virus; experiment: Antiviral activity against Vaccinia virus infected in HEL cells assessed as inhibition of virus-induced cytopathic effect; type: functional, organism-based; conditions: Orthopoxvirus vaccinia
[15] = tested on: Staphylococcus epidermidis; experiment: Antimicrobial activity against Staphylococcus epidermidis over-expressing MecA; type: functional
[16] = tested on: Human alphaherpesvirus 1; experiment: Antiviral activity against thymidine kinase deficient and acyclovir-resistant HSV1 KOS infected in HEL cells assessed as inhibition of virus-induced cytopathic effect; type: functional, organism-based; conditions: Human alphaherpesvirus 1, KOS
[17] = tested on: Vesicular stomatitis virus; experiment: Antiviral activity against Vesicular stomatitis virus infected in HEL cells assessed as inhibition of virus-induced cytopathic effect; type: functional, organism-based
[18] = tested on: Bacillus subtilis; experiment: Antimicrobial activity against Bacillus subtilis ATCC 6633; type: functional

NC12CC3CC(CC(C3)C1)C2 [AMANTADINE]
pEC50 [1]: 3.67
MCC [2]: ≥ 500 µM
pEC50 [3]: < 3.30
pEC50 [4]: 6.35

CC(=O)N[C@H]1[C@H](O[C@@H]2c3ccc(c(Cl)c3)Oc3cc4cc(c3O)Oc3ccc(cc3Cl)C[C@H]3NC(=O)[C@H](n5cc6ccccc6c5S[C@@H]5O[C@H](CO)[C@@H](O)[C@H](O)[C@H]5O)c5ccc(O)c(c5)Oc5cc(O)cc(c5)[C@H](NC3=O)C(=O)N[C@H]4C(=O)N[C@H]3C(=O)N[C@@H]2C(=O)N[C@H](C(=O)O)c2cc(O)cc(O)c2-c2cc3ccc2O)O[C@H](CO)[C@@H](O)[C@@H]1O
MCC [5]: ≥ 100 µM
MBC [6]: 0.5 µg/mL (≈ 0.295 µM)
MIC [6]: 0.0075 µg/mL (≈ 0.00442 µM)
pEC50 [7]: 4.35
MBC [8]: 256 µg/mL (≈ 151 µM)
MIC [8]: 0.0625 µg/mL (≈ 0.0368 µM)
pEC50 [1]: < 4.00
MBC [9]: 1 µg/mL (≈ 0.589 µM)
MIC [9]: 0.0075 µg/mL (≈ 0.00442 µM)
pEC50 [10]: 4.40
MBC [11]: 256 µg/mL (≈ 151 µM)
MIC [11]: 1 µg/mL (≈ 0.589 µM)
MBC [12]: 1 µg/mL (≈ 0.589 µM)
MIC [12]: 0.0313 µg/mL (≈ 0.0185 µM)
MBC [13]: 256 µg/mL (≈ 151 µM)
MIC [13]: 2 µg/mL (≈ 1.18 µM)
pEC50 [14]: 4.35
MCC [2]: < 0.8 µM
MBC [15]: 32 µg/mL (≈ 18.9 µM)
MIC [15]: 0.015 µg/mL (≈ 0.00884 µM)
pEC50 [16]: ≤ 4.35
pEC50 [3]: < 4.00
pEC50 [17]: 4.28
pEC50 [4]: < 4.00
MBC [18]: 1 µg/mL (≈ 0.589 µM)
MIC [18]: 0.125 µg/mL (≈ 0.0737 µM)

CC(=O)N[C@H]1[C@H](O[C@@H]2c3ccc(c(Cl)c3)Oc3cc4cc(c3O)Oc3ccc(cc3Cl)C[C@H]3NC(=O)[C@H](n5cc6cc7ccccc7cc6c5Sc5ccccc5)c5ccc(O)c(c5)Oc5cc(O)cc(c5)[C@H](NC3=O)C(=O)N[C@H]4C(=O)N[C@H]3C(=O)N[C@@H]2C(=O)N[C@H](C(=O)O)c2cc(O)cc(O)c2-c2cc3ccc2O)O[C@H](CO)[C@@H](O)[C@@H]1O
MCC [5]: 100 µM
MBC [6]: 0.5 µg/mL (≈ 0.301 µM)
MIC [6]: 0.0313 µg/mL (≈ 0.0189 µM)
pEC50 [7]: < 4.70
MBC [8]: 32 µg/mL (≈ 19.3 µM)
MIC [8]: 0.125 µg/mL (≈ 0.0753 µM)
pEC50 [1]: < 4.00
MBC [9]: 0.5 µg/mL (≈ 0.301 µM)
MIC [9]: 0.25 µg/mL (≈ 0.151 µM)
pEC50 [10]: < 4.70
MBC [11]: 256 µg/mL (≈ 154 µM)
MIC [11]: 2 µg/mL (≈ 1.2 µM)
MBC [12]: 1 µg/mL (≈ 0.602 µM)
MIC [12]: 0.0313 µg/mL (≈ 0.0189 µM)
MBC [13]: 256 µg/mL (≈ 154 µM)
MIC [13]: 1 µg/mL (≈ 0.602 µM)
pEC50 [14]: < 4.70
MCC [2]: < 0.8 µM
MBC [15]: 256 µg/mL (≈ 154 µM)
MIC [15]: 0.0313 µg/mL (≈ 0.0189 µM)
pEC50 [16]: < 4.70
pEC50 [3]: < 4.00
pEC50 [17]: < 4.70
pEC50 [4]: < 4.00
MBC [18]: 4 µg/mL (≈ 2.41 µM)
MIC [18]: 2 µg/mL (≈ 1.2 µM)

CC(=O)N[C@H]1[C@H]([C@H](O)[C@H](O)CO)OC(C(=O)O)=C[C@@H]1NC(=N)N [ZANAMIVIR]
pEC50 [1]: 5.80
MCC [2]: > 100 µM
pEC50 [3]: 4.64
pEC50 [4]: 5.32

CC(=O)N[C@@H]1[C@H](Oc2c3cc4cc2Oc2ccc(cc2Cl)[C@@H](O[C@@H]2O[C@@H](CO)[C@@H](O)[C@H](O)[C@@H]2NC(C)=O)[C@@H]2NC(=O)[C@H](NC(=O)[C@@H]4NC(=O)[C@H]4NC(=O)[C@@H](Cc5ccc(c(Cl)c5)O3)NC(=O)[C@H](N)c3ccc(O)c(c3)Oc3cc(O)cc4c3)c3ccc(O)c(c3)-c3c(O[C@H]4O[C@H](CO)[C@@H](O)[C@@H](O)[C@@H]4O)cc(O)cc3[C@@H](C(=O)O)NC2=O)O[C@@H](CO)[C@@H](O)[C@@H]1O
MBC [6]: 16 µg/mL (≈ 9.05 µM)
MIC [6]: 2 µg/mL (≈ 1.13 µM)
MBC [8]: 256 µg/mL (≈ 145 µM)
MIC [8]: 256 µg/mL (≈ 145 µM)
MBC [9]: 2 µg/mL (≈ 1.13 µM)
MIC [9]: 0.5 µg/mL (≈ 0.283 µM)
MBC [11]: 256 µg/mL (≈ 145 µM)
MIC [11]: 4 µg/mL (≈ 2.26 µM)
MBC [12]: 2 µg/mL (≈ 1.13 µM)
MIC [12]: 0.5 µg/mL (≈ 0.283 µM)
MBC [13]: 64 µg/mL (≈ 36.2 µM)
MIC [13]: 2 µg/mL (≈ 1.13 µM)
MBC [15]: 32 µg/mL (≈ 18.1 µM)
MIC [15]: 8 µg/mL (≈ 4.53 µM)
MBC [18]: 16 µg/mL (≈ 9.05 µM)
MIC [18]: 0.5 µg/mL (≈ 0.283 µM)

Nc1nc2c(ncn2COC(CO)CO)c(=O)[nH]1 [GANCICLOVIR]
MCC [5]: > 100 µM
pEC50 [7]: 7.82
pEC50 [10]: 7.89
pEC50 [14]: < 4.00
pEC50 [16]: 5.40
pEC50 [17]: < 4.00

CC(=O)N[C@H]1[C@H](O[C@@H]2c3ccc(c(Cl)c3)Oc3cc4cc(c3O)Oc3ccc(cc3Cl)C[C@H]3NC(=O)[C@H](N)c5ccc(O)c(c5)Oc5cc(O)cc(c5)[C@H](NC3=O)C(=O)N[C@H]4C(=O)N[C@H]3C(=O)N[C@@H]2C(=O)N[C@H](C(=O)O)c2cc(O)cc(O)c2-c2cc3ccc2O)O[C@H](CO)[C@@H](O)[C@@H]1O
MCC [5]: > 100 µM
pEC50 [7]: < 4.00
pEC50 [1]: 4.64
pEC50 [10]: < 4.00
pEC50 [14]: < 4.00
MCC [2]: ≥ 100 µM
pEC50 [16]: < 4.00
pEC50 [3]: < 4.00
pEC50 [17]: < 4.00
pEC50 [4]: 4.77

Nc1nc2c(ncn2COCCO)c(=O)[nH]1 [ACYCLOVIR]
MCC [5]: > 250 µM
pEC50 [7]: 6.85
pEC50 [10]: 6.85
pEC50 [14]: ≤ 3.60
pEC50 [16]: 4.36
pEC50 [17]: < 3.60

CC(=O)N[C@@H]1[C@@H](OC(C)=O)[C@H](OC(C)=O)[C@@H](COC(C)=O)O[C@H]1Sc1c2ccccc2cn1[C@H]1C(=O)N[C@@H]2Cc3ccc(c(Cl)c3)Oc3cc4cc(c3O)Oc3ccc(cc3Cl)[C@@H](O[C@@H]3O[C@H](CO)[C@@H](O)[C@H](O)[C@H]3NC(C)=O)[C@@H]3NC(=O)[C@H](NC(=O)[C@@H]4NC(=O)[C@@H](NC2=O)c2cc(O)cc(c2)Oc2cc1ccc2O)c1ccc(O)c(c1)-c1c(O)cc(O)cc1[C@@H](C(=O)O)NC3=O
MCC [5]: > 100 µM
MBC [6]: 2 µg/mL (≈ 1.07 µM)
MIC [6]: 0.0075 µg/mL (≈ 0.00402 µM)
pEC50 [7]: 4.40
MBC [8]: 256 µg/mL (≈ 137 µM)
MIC [8]: 0.0625 µg/mL (≈ 0.0335 µM)
pEC50 [1]: < 4.00
MBC [9]: 2 µg/mL (≈ 1.07 µM)
MIC [9]: 0.0625 µg/mL (≈ 0.0335 µM)
pEC50 [10]: 4.40
MBC [11]: 256 µg/mL (≈ 137 µM)
MIC [11]: 2 µg/mL (≈ 1.07 µM)
MBC [12]: 1 µg/mL (≈ 0.537 µM)
MIC [12]: 0.125 µg/mL (≈ 0.0671 µM)
MBC [13]: 256 µg/mL (≈ 137 µM)
MIC [13]: 2 µg/mL (≈ 1.07 µM)
pEC50 [14]: 4.35
MCC [2]: 20 µM
MBC [15]: 32 µg/mL (≈ 17.2 µM)
MIC [15]: 2 µg/mL (≈ 1.07 µM)
pEC50 [16]: 4.35
pEC50 [3]: < 4.00
pEC50 [17]: < 4.00
pEC50 [4]: < 4.00
MBC [18]: 1 µg/mL (≈ 0.537 µM)
MIC [18]: 0.25 µg/mL (≈ 0.134 µM)

CC(N)C12CC3CC(CC(C3)C1)C2 (configuration not stated) [RIMANTADINE]
pEC50 [1]: 4.85
pEC50 [3]: < 3.30
pEC50 [4]: 7.29

O=c1[nH]c(=O)n([C@H]2C[C@H](O)[C@@H](CO)O2)cc1/C=C/Br [BRIVUDINE]
MCC [5]: > 250 µM
pEC50 [7]: 7.62
pEC50 [10]: 3.70
pEC50 [14]: 5.00
pEC50 [16]: 4.30
pEC50 [17]: < 3.60

NC(=O)c1ncn([C@@H]2O[C@H](CO)[C@@H](O)[C@H]2O)n1 [RIBAVIRIN]
pEC50 [1]: 5.21
pEC50 [3]: 5.34
pEC50 [4]: 5.22

Nc1ccn(C[C@@H](CO)OCP(=O)(O)O)c(=O)n1 [CIDOFOVIR]
MCC [5]: > 250 µM
pEC50 [7]: 5.82
pEC50 [10]: 6.05
pEC50 [14]: 4.68
pEC50 [16]: 5.82
pEC50 [17]: < 3.60
